Results reported in ChEMBL document CHEMBL1201862, “PubChem BioAssay data set” (2004).
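Compound exposure: 48 hours, 5 concentrations, 96-well plates. Abbreviation: GI50, concentration required for 50% inhibition of growth.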 The source made the active and inactive calls. Rule as the data show it: active = GI50 up to about 1.1 µM and inactive = higher.

Legend:
Test in all cases: inhibition of tumour cell growth, NCI panel, 48 h
ACHN = tested on: ACHN
HCT-116 = tested on: HCT-116
HOP-92 = tested on: HOP-92
SF-268 = tested on: SF-268
TK-10 = tested on: TK-10
HCT-15 = tested on: HCT-15
NCI-H226 = tested on: NCI-H226
SW-620 = tested on: SW-620
UO-31 = tested on: UO-31
RPMI-8226 = tested on: RPMI-8226
LOX IMVI = tested on: LOX IMVI
SNB-19 = tested on: SNB-19
HT-29 = tested on: HT-29
SF-295 = tested on: SF-295
SF-539 = tested on: SF-539
MOLT-4 = tested on: MOLT-4
EKVX = tested on: EKVX
KM12 = tested on: KM12
NCI-H522 = tested on: NCI-H522
OVCAR-4 = tested on: OVCAR-4

SMILES | GI50 (ACHN) | GI50 (HCT-116) | GI50 (HOP-92) | GI50 (SF-268) | GI50 (TK-10) | GI50 (HCT-15) [µM] | GI50 (NCI-H226) | GI50 (SW-620) | GI50 (UO-31) | GI50 (RPMI-8226) | GI50 (LOX IMVI) | GI50 (SNB-19) | GI50 (HT-29) | GI50 (SF-295) | GI50 (SF-539) | GI50 (MOLT-4) | GI50 (EKVX) | GI50 (KM12) | GI50 (NCI-H522) | GI50 (OVCAR-4)
Cc1ccc(NC(=O)C2C(=O)N(c3ccc(C)c(C)c3)C(=O)/C2=N\NC(N)=S)cc1C (stereo not drawn) | > 100 µM (inactive) | > 100 µM (inactive) | > 100 µM (inactive) | 61.4 µM (inactive) | > 100 µM (inactive) | > 100 | > 100 µM (inactive) | > 100 µM (inactive) | 56.8 µM (inactive) | > 100 µM (inactive) | > 100 µM (inactive) | 29.6 µM (inactive) | 78 µM (inactive) | > 100 µM (inactive) | > 100 µM (inactive) | 42.6 µM (inactive) | > 100 µM (inactive) | > 100 µM (inactive) | 50.2 µM (inactive) | 
Cc1[nH]c(-c2ccccc2)c(O)c1C(=O)OC1CC(C)CCC1C(C)C (stereo not drawn) | 16.4 µM (inactive) | 14.9 µM (inactive) | 17.6 µM (inactive) | 15.3 µM (inactive) |  | 17.8 | 16.9 µM (inactive) | 15.7 µM (inactive) | 13.3 µM (inactive) | 15.3 µM (inactive) |  | 17.3 µM (inactive) | 14.4 µM (inactive) | 12.4 µM (inactive) | 16.2 µM (inactive) | 11.1 µM (inactive) | 11.7 µM (inactive) | 13.4 µM (inactive) | 13.3 µM (inactive) | 13.4 µM (inactive)
Nc1nc(SCCc2ccccc2)nc2nc3c(c(-c4ccccc4)c12)CCCC3 | > 100 µM (inactive) | > 10 µM (inactive) |  | > 100 µM (inactive) | > 100 µM (inactive) | > 100 |  | > 100 µM (inactive) | > 100 µM (inactive) | > 100 µM (inactive) | > 100 µM (inactive) | > 100 µM (inactive) | > 100 µM (inactive) | > 100 µM (inactive) | 0.706 µM (active) | > 100 µM (inactive) | > 100 µM (inactive) | > 100 µM (inactive) |  | 40.9 µM (inactive)
O=C(NC(Cc1ccc(I)cc1)C(=O)O)c1cccc(Br)c1 (stereo not drawn) |  | > 100 µM (inactive) | 44.9 µM (inactive) | > 100 µM (inactive) |  | > 100 | > 100 µM (inactive) | > 100 µM (inactive) | > 100 µM (inactive) | 47.8 µM (inactive) | > 95.9 µM (inactive) | 99.1 µM (inactive) | > 100 µM (inactive) | > 100 µM (inactive) | 84.1 µM (inactive) | 33.7 µM (inactive) | > 61.7 µM (inactive) | 55.1 µM (inactive) | > 61.1 µM (inactive) | > 92.9 µM (inactive)
Cc1cc([N+](=O)[O-])ccc1/N=N/C(=O)NNc1ccc([N+](=O)[O-])cc1C | 15.8 µM (inactive) | 11.2 µM (inactive) |  | 20 µM (inactive) | 16.7 µM (inactive) | 19.1 | 15.3 µM (inactive) | 16.7 µM (inactive) | 11.8 µM (inactive) | 21.3 µM (inactive) | 15.9 µM (inactive) | 15.6 µM (inactive) | 27 µM (inactive) |  |  | 15.5 µM (inactive) |  |  | 25 µM (inactive) | 14.1 µM (inactive)
O=S(O)CCCCCSSc1ccccc1 | 85.7 µM (inactive) | 24.3 µM (inactive) |  | 15.8 µM (inactive) | 84.9 µM (inactive) |  |  |  | 31.6 µM (inactive) | 18.5 µM (inactive) | 20 µM (inactive) | > 100 µM (inactive) | 84.9 µM (inactive) |  | 22.8 µM (inactive) | 8.13 µM (inactive) | > 100 µM (inactive) | 53.3 µM (inactive) | 15.3 µM (inactive) | > 100 µM (inactive)
C=C1C(O)C2(O)OCC34C(CC5C(C)=CC(=O)C(O)C5(C)C23)OC(=O)C(OC(=O)C/C=C/CCCCCCCC)C14 (stereo not drawn) |  | 0.02 µM (active) | 0.02 µM (active) | 0.0209 µM (active) |  | 0.0241 | 0.02 µM (active) | 0.0217 µM (active) | 0.0452 µM (active) | 0.02 µM (active) | 0.0237 µM (active) | 0.0212 µM (active) | 0.0226 µM (active) |  | 0.0208 µM (active) | 0.02 µM (active) | 0.02 µM (active) | 0.0294 µM (active) | 0.02 µM (active) | 
CCC1NC(/N=N/c2ccc([N+](=O)[O-])cc2)(P(=O)(OC(C)C)OC(C)C)OC1=O (stereo not drawn) | > 100 µM (inactive) | > 100 µM (inactive) | > 100 µM (inactive) | > 100 µM (inactive) | > 100 µM (inactive) |  |  | > 100 µM (inactive) | > 100 µM (inactive) | > 100 µM (inactive) |  | > 100 µM (inactive) | > 100 µM (inactive) | > 100 µM (inactive) | > 100 µM (inactive) | > 100 µM (inactive) | > 100 µM (inactive) | > 100 µM (inactive) | > 100 µM (inactive) | > 100 µM (inactive)
CCOC(=O)CC1(c2cccc3ccccc23)OC(=O)c2ccccc21 (stereo not drawn) | 30.3 µM (inactive) |  |  | 32.7 µM (inactive) | 80 µM (inactive) | 35.5 | 67 µM (inactive) | 79.4 µM (inactive) | 23.9 µM (inactive) | 23.7 µM (inactive) | 60.4 µM (inactive) | 50.9 µM (inactive) | 49.8 µM (inactive) | 34.4 µM (inactive) |  | 25.4 µM (inactive) | 63.2 µM (inactive) | 40.5 µM (inactive) | 24.1 µM (inactive) | 40.4 µM (inactive)
O=C1C[C@H](c2ccccc2)C2(C(=O)c3ccccc3C2=O)[C@H](c2ccccc2)C1 |  | 46.5 µM (inactive) | 32.2 µM (inactive) |  |  | > 100 | > 100 µM (inactive) |  | > 100 µM (inactive) | > 100 µM (inactive) |  | > 100 µM (inactive) | > 100 µM (inactive) | > 100 µM (inactive) |  | 61.2 µM (inactive) |  | > 100 µM (inactive) | 91 µM (inactive) | > 100 µM (inactive)
CON(C)c1nc(N)c(C#N)c(C#N)c1C#N | > 10 µM (inactive) | > 10 µM (inactive) |  | > 10 µM (inactive) | > 10 µM (inactive) | > 10 | > 10 µM (inactive) | > 10 µM (inactive) | > 10 µM (inactive) | > 10 µM (inactive) | > 10 µM (inactive) | > 10 µM (inactive) | > 10 µM (inactive) | > 10 µM (inactive) | > 10 µM (inactive) | > 10 µM (inactive) | > 10 µM (inactive) | > 10 µM (inactive) | > 10 µM (inactive) | > 10 µM (inactive)
C/C(=C\c1ccccc1)n1c(=O)cc(C)n1C | > 100 µM (inactive) | > 100 µM (inactive) | > 100 µM (inactive) | > 100 µM (inactive) | > 100 µM (inactive) |  | > 100 µM (inactive) | > 100 µM (inactive) | > 100 µM (inactive) | > 100 µM (inactive) | > 100 µM (inactive) | > 100 µM (inactive) | > 100 µM (inactive) | > 100 µM (inactive) | > 100 µM (inactive) | 25.7 µM (inactive) | > 100 µM (inactive) | > 100 µM (inactive) |  | > 100 µM (inactive)
CSc1nc(NC2OCC(O)C(O)C2O)c(N)c(=O)n1C (stereo not drawn) |  | > 100 µM (inactive) | > 100 µM (inactive) | > 100 µM (inactive) |  | > 100 | > 100 µM (inactive) | > 100 µM (inactive) | > 85.5 µM (inactive) | > 100 µM (inactive) | > 100 µM (inactive) | > 100 µM (inactive) | > 100 µM (inactive) | > 100 µM (inactive) | 75.2 µM (inactive) | > 100 µM (inactive) | > 100 µM (inactive) | > 100 µM (inactive) | > 100 µM (inactive) | > 100 µM (inactive)
CC(C)(C)c1ccc2c(c1)OP1(Oc3cccc4cccnc34)(O2)Oc2ccc(C(C)(C)C)cc2O1 |  | 3.13 µM (inactive) | 4.61 µM (inactive) | 6.56 µM (inactive) |  | 2.86 | 8.49 µM (inactive) | 2.25 µM (inactive) | 4.42 µM (inactive) | 0.597 µM (active) | 3.68 µM (inactive) | 14.2 µM (inactive) | 3.89 µM (inactive) | 4.19 µM (inactive) | 10.4 µM (inactive) | 0.57 µM (active) | 3.08 µM (inactive) | 6.73 µM (inactive) | 4.9 µM (inactive) | 2.48 µM (inactive)
COC(C[C@H]1CCCC[C@]1(O)/C(=C\CO[Si](C(C)C)(C(C)C)C(C)C)Sc1ccccc1)OC | > 100 µM (inactive) | 22.5 µM (inactive) | 20.5 µM (inactive) | 28.3 µM (inactive) | > 100 µM (inactive) | 21.8 | 23.2 µM (inactive) |  | 42.2 µM (inactive) | 15.5 µM (inactive) | 18 µM (inactive) | 26.7 µM (inactive) | 46.1 µM (inactive) | 32.4 µM (inactive) |  | 17.3 µM (inactive) | 37.4 µM (inactive) | 41.3 µM (inactive) | 15.8 µM (inactive) | 39.2 µM (inactive)
O=P(Nc1ccc(Cl)cc1)(Oc1ccccc1)N(CCCl)CCCl (stereo not drawn) | > 100 µM (inactive) | > 100 µM (inactive) | > 100 µM (inactive) | > 100 µM (inactive) | > 100 µM (inactive) | > 100 | > 100 µM (inactive) | > 100 µM (inactive) | > 100 µM (inactive) |  |  |  | > 100 µM (inactive) | > 100 µM (inactive) | > 100 µM (inactive) | > 100 µM (inactive) | > 100 µM (inactive) | > 100 µM (inactive) | > 100 µM (inactive) | > 100 µM (inactive)
